Data set [1] can be described thus: solubility in water (statement in Example 3). The settings on record: stated to explain the reaction speed in the madder root extraction mixture. Format: physicochemical. How it is done:
After analysis of the reaction mixture it follows that within 60 minutes all LP is converted into LUC. After the reaction vessel is opened, LUC is converted into NOR, a step which takes 6 hours. When oxygen is present LUC can not be detected, which means that its conversion is much faster than in the present experimental situation. […] Therefore, it is in general difficult for the enzyme to oxidize the solid LUC to NOR. However, when the reaction is performed under oxygen LUC cannot crystalize, because it is immediately oxidized to NOR.

For data set [2] the following is noted: stated as known, no test described; cited from earlier work.

For `O=C1c2ccccc2C(=O)c2c1cc(O)c(CO)c2O` [LUC, lucidin], the solubility in water entry in data set [1] was “not soluble in water”. In addition, the mutagenicity entry in data set [2] was “mutagenic”.

Consider `O=Cc1c(O)cc2c(c1O)C(=O)c1ccccc1C2=O` [NOR, nordamnacanthal], for which the solubility in water result in data set [1] is on record as “insoluble in water”.

The values above are taken from US6596036B2, “Method for the production of a dye preparation based on madder root” (Coöperatie Rubia U.A., priority 2000, dated 2003).
